Where a name gives a salt, the structure may show the parent alone.
Tests used:
[1] = Doxepin plasma concentration after a 3 mg capsule in humans; format: in vivo, human
Procedure: An estimate of the doxepin plasma concentrations associated with the initiation of sleep was obtained by combining data from multiple studies.
In a separate study, in humans averaging about 70 kg, receiving a 3 mg capsule comprising doxepin hydrochloride, lactose monohydrate fast-flow, sodium lauryl sulfate and magnesium stearate, the average plasma concentration at 60 minutes was approximately 0.1 ng/mL.
Without being limited, it is believed that the doxepin plasma concentration achieved approximately 1 hour after a 3 mg dose is sufficient for sleep initiation. The conclusion is that doxepin plasma concentrations of 0.1 ng/mL or greater were associated with initiation of sleep.

[2] = Measured physicochemical parameters (logP, pKa) used for the simulation
[3] = Measured bioavailability used for the simulation; conditions: in vivo
[4] = tested on: human subjects; experiment: Sleep onset after a 3 mg doxepin hydrochloride capsule in human subjects; format: in vivo; conditions: human subjects averaging about 70 kg
[5] = Wu-Benet, 2005; cited from earlier work

Compound	doxepin plasma concentration associated with initiation of sleep ([1]; estimate from combining data from multiple studies)	logP [2]	pKa [2]	bioavailability [3]	sleep onset compared with a placebo dose ([4]; 3 mg capsule)	time of sleep onset after dosing ([4]; 3 mg capsule (doxepin hydrochloride, lactose monohydrate fast-flow, sodium lauryl sulfate, magnesium stearate))	concentration at 60 min ([1]; human, plasma, oral, humans averaging about 70 kg, 3 mg capsule, separate study)	Biopharmaceutic Classification System class [5]	solubility (Biopharmaceutic Classification System) [5]
CN(C)CCC=C1c2ccccc2COc2ccccc21 (mixture of isomers) [doxepin]	≥ 0.1 ng/mL	4.13	8.96	29%	–	–	–	–	–
CN(C)CCC=C1c2ccccc2COc2ccccc21 (mixture of isomers) [doxepin hydrochloride]	–	–	–	–	significantly earlier than with a placebo dose	about 60 minutes	~0.1 ng/mL	Class One	high solubility

Reference: US20110318412A1, “LOW DOSE DOXEPIN FORMULATIONS, INCLUDING BUCCAL, SUBLINGUAL AND FASTMELT FORMULATIONS, AND USES OF THE SAME TO TREAT INSOMNIA” (Somaxon Pharmaceuticals, Inc., priority 2006, published 2011)
